Laboratory results: DBAASP
≈ marks a conversion by molar mass, not a printed value.

Tests used:
Assay in all cases: ≥ marks a high value that may be exact or a test limit, other limits are often not marked, values filed in µg/mL are converted to µM
Providencia stuartii = tested on: Providencia stuartii
[1] = tested on: Escherichia coli NCTC 10418
[2] = tested on: Escherichia coli NCTC 8007
Acinetobacter sp. = tested on: Acinetobacter sp.
Klebsiella aerogenes = tested on: Klebsiella aerogenes
Proteus mirabilis = tested on: Proteus mirabilis
[3] = tested on: Staphylococcus aureus NCTC 10571
Klebsiella sp. = tested on: Klebsiella sp.
[4] = tested on: Cryptococcus neoformans var. grubii H99
[5] = tested on: Pseudomonas aeruginosa ATCC 27853
[6] = tested on: Escherichia coli ATCC 25922
[7] = tested on: Acinetobacter baumannii ATCC 19606
Escherichia coli K-12 = tested on: Escherichia coli K-12
[8] = tested on: Candida albicans ATCC 90028
[9] = tested on: Staphylococcus aureus ATCC 43300
[10] = tested on: Klebsiella pneumoniae ATCC 700603
[11] = tested on: Staphylococcus aureus JE2
Staphylococcus aureus = tested on: Staphylococcus aureus
Klebsiella pneumoniae = tested on: Klebsiella pneumoniae
Pasteurella multocida = tested on: Pasteurella multocida
Bibersteinia trehalosi = tested on: Bibersteinia trehalosi
[12] = tested on: Mannheimia haemolytica Serovar 2
[13] = tested on: Corynebacterium pseudotuberculosis ATCC 19410
[14] = tested on: Salmonella enterica subsp. arizonae
[15] = tested on: Mannheimia haemolytica Serovar 6
[16] = tested on: Pseudomonas aeruginosa PAO1
Aspergillus fumigatus = tested on: Aspergillus fumigatus
[17] = tested on: Mannheimia haemolytica Serovar 1
[18] = tested on: Salmonella typhimurium CCRC 12947
Escherichia coli JM109 = tested on: Escherichia coli JM109
[19] = tested on: Staphylococcus aureus CCRC 15211
Staphylococcus xylosus = tested on: Staphylococcus xylosus
[20] = tested on: Vibrio parahaemolyticus CCRC 10806
[21] = tested on: Klebsiella pneumoniae CCRC 10694
[22] = tested on: Staphylococcus aureus CCRC 12652
[23] = tested on: Candida albicans ATCC 2002
[24] = tested on: Lactococcus lactis MG1363
Escherichia coli INV-a = tested on: Escherichia coli INV-a
Escherichia coli BL21 = tested on: Escherichia coli BL21
Pseudomonas aeruginosa = tested on: Pseudomonas aeruginosa
Salmonella enterica = tested on: Salmonella enterica
[25] = tested on: Staphylococcus aureus ATCC 2592
Citrobacter koseri = tested on: Citrobacter koseri
[26] = tested on: Streptococcus alactolyticus
[27] = tested on: Pseudomonas aeruginosa 7A
Escherichia coli 27A = tested on: Escherichia coli 27A
[28] = tested on: Staphylococcus aureus 15A
Staphylococcus aureus 6A = tested on: Staphylococcus aureus 6A
Escherichia coli 23A = tested on: Escherichia coli 23A
[29] = tested on: Pseudomonas aeruginosa 3A
Trypanosoma cruzi = tested on: Trypanosoma cruzi

CSCC[C@H](NC(=O)[C@H](CC(N)=O)NC(=O)[C@H](CCCN=C(N)N)NC(=O)[C@H](CCC(N)=O)NC(=O)[C@H](Cc1c[nH]c2ccccc12)NC(=O)[C@H](CCC(N)=O)NC(=O)[C@@H](N)Cc1ccccc1)C(=O)N[C@@H](CCCN=C(N)N)C(=O)N[C@@H](CCCCN)C(=O)N[C@H](C(=O)N[C@@H](CCCN=C(N)N)C(=O)NCC(=O)N1CCC[C@H]1C(=O)N1CCC[C@H]1C(=O)N[C@H](C(=O)N[C@@H](CO)C(=O)O)C(C)C)C(C)C [FQWQRNMRKVRGPPVS]
MIC (Providencia stuartii): ≥ 1000 µM
MIC [1]: ≥ 500 µM
MIC [2]: ≥ 500 µM
MIC (Acinetobacter sp.): 2 µM (≈ 3.97 µg/mL)
MIC (Klebsiella aerogenes): ≥ 1000 µM
MIC (Proteus mirabilis): ≥ 1000 µM
MIC [3]: ≥ 500 µM
MIC (Klebsiella sp.): ≥ 1000 µM

CC[C@H](C)[C@H](NC(=O)[C@@H](NC(=O)[C@H](CO)NC(=O)[C@H](C)NC(=O)[C@@H](NC(=O)[C@H](CCCCN)NC(=O)[C@H](CCCCN)NC(=O)[C@@H](NC(=O)[C@@H](NC(=O)[C@H](CCC(=O)O)NC(=O)[C@H](Cc1ccccc1)NC(=O)[C@H](CC(C)C)NC(=O)CN)C(C)C)[C@@H](C)CC)C(C)C)C(C)C)C(=O)NCC(=O)NCC(=O)N[C@@H](CC(C)C)C(=O)O [GLFEVIKKVASVIGGL]
MIC [4]: 9.82 µM (≈ 16 µg/mL)
MIC [5]: > 19.6 µM
MIC [6]: > 19.6 µM
MIC [7]: > 19.6 µM
MIC (Escherichia coli K-12): 19.6 µM (≈ 32 µg/mL)
MIC [8]: 19.6 µM (≈ 32 µg/mL)
MIC [9]: 19.6 µM (≈ 32 µg/mL)
MIC [10]: > 19.6 µM
MIC [11]: ≥ 39.3 µM

CC[C@H](C)[C@H](NC(=O)[C@H](Cc1cnc[nH]1)NC(=O)[C@@H](NC(=O)[C@@H](NC(=O)[C@H](CCCCN)NC(=O)[C@H](CCCN=C(N)N)NC(=O)[C@@H](NC(=O)[C@@H](NC(=O)[C@H](CCCN=C(N)N)NC(=O)[C@@H](N)CCCN=C(N)N)[C@@H](C)CC)[C@@H](C)CC)[C@@H](C)CC)[C@@H](C)CC)C(=O)N[C@H](C(=O)N[C@@H](CCCCN)C(=O)N[C@@H](CCCCN)C(N)=O)[C@@H](C)CC [RRIIRKIIHIIKK]
MIC (Staphylococcus aureus): > 11.9 µM
MIC (Klebsiella pneumoniae): > 11.9 µM
MIC (Pasteurella multocida): 11.9 µM (≈ 20 µg/mL)
MIC (Bibersteinia trehalosi): 11.9 µM (≈ 20 µg/mL)
MIC [12]: 2.73 µM (≈ 4.6 µg/mL)
MIC [13]: 11.9 µM (≈ 20 µg/mL)
MIC [14]: 11.9 µM (≈ 20 µg/mL)
MIC [15]: 2.49 µM (≈ 4.2 µg/mL)
MIC [16]: 0.356 µM (≈ 0.6 µg/mL)
MIC (Aspergillus fumigatus): 3.44 µM (≈ 5.8 µg/mL)
MIC [17]: 4.92 µM (≈ 8.3 µg/mL)

CC[C@H](C)[C@H](N)C(=O)N[C@@H](CC(N)=O)C(=O)N[C@@H](Cc1c[nH]c2ccccc12)C(=O)N[C@@H](CCCCN)C(=O)NCC(=O)N[C@H](C(=O)N[C@@H](C)C(=O)N[C@@H](C)C(=O)N[C@@H](CCSC)C(=O)N[C@@H](C)C(=O)N[C@@H](CCCCN)C(=O)N[C@@H](CCCCN)C(=O)N[C@@H](CC(C)C)C(=O)N[C@@H](CC(C)C)C(N)=O)[C@@H](C)CC [INWKGIAAMAKKLL]
MIC [18]: 20.6 µM (≈ 32 µg/mL)
MIC [6]: 4.82 µM (≈ 7.5 µg/mL)
MIC (Escherichia coli JM109): 5.14 µM (≈ 8 µg/mL)
MIC [19]: ≥ 41.1 µM
MIC (Staphylococcus xylosus): 1.93 µM (≈ 3 µg/mL)
MIC [20]: 20.6 µM (≈ 32 µg/mL)
MIC [21]: ≥ 41.1 µM
MIC [22]: 20.6 µM (≈ 32 µg/mL)
MIC [23]: 2.38 µM (≈ 3.7 µg/mL)
MIC [24]: 2.5 µM (≈ 3.89 µg/mL)
MIC (Escherichia coli INV-a): 8 µM (≈ 12.4 µg/mL)
MIC (Escherichia coli BL21): 5.14 µM (≈ 8 µg/mL)
MIC (Pseudomonas aeruginosa): 164 µM (≈ 256 µg/mL)
MIC (Salmonella enterica): 20.6 µM (≈ 32 µg/mL)
MIC [25]: 2.38 µM (≈ 3.7 µg/mL)
MIC (Citrobacter koseri): 2.57 µM (≈ 4 µg/mL)
MIC [26]: 10.3 µM (≈ 16 µg/mL)

CC[C@H](C)[C@H](NC(=O)[C@@H](NC(=O)[C@@H]1CCCN1C(=O)[C@H](CCSC)NC(=O)[C@@H](N)Cc1ccccc1)[C@@H](C)CC)C(=O)NCC(=O)N[C@@H](CCCN=C(N)N)C(=O)N[C@@H](CC(C)C)C(=O)N[C@@H](CCSC)C(=O)N[C@@H](CO)C(=O)NCC(=O)N[C@@H](CO)C(=O)N[C@@H](CC(C)C)C(=O)O [FMPIIGRLMSGSL]
MIC [6]: 5.28 µM (≈ 7.5 µg/mL)
MIC [27]: 2.64 µM (≈ 3.75 µg/mL)
MIC (Escherichia coli 27A): 10.6 µM (≈ 15 µg/mL)
MIC [28]: 0.703 µM (≈ 1 µg/mL)
MIC (Staphylococcus aureus 6A): 2.64 µM (≈ 3.75 µg/mL)
MIC (Escherichia coli 23A): 5.28 µM (≈ 7.5 µg/mL)
MIC [29]: 2.64 µM (≈ 3.75 µg/mL)
MIC [23]: 21.1 µM (≈ 30 µg/mL)
MIC [25]: 1.34 µM (≈ 1.9 µg/mL)

CC[C@H](C)[C@H](NC(=O)[C@H](C)NC(=O)[C@H](CO)NC(=O)[C@@H](NC(=O)[C@H](C)NC(=O)[C@H](CC(N)=O)NC(=O)[C@@H](NC(=O)[C@H](C)NC(=O)[C@H](Cc1cnc[nH]1)NC(=O)[C@@H]1CCCN1C(=O)[C@@H](NC(=O)[C@H](CC(C)C)NC(=O)[C@H](CO)NC(=O)[C@H](CC(C)C)NC(=O)[C@@H](N)Cc1ccccc1)[C@@H](C)CC)[C@@H](C)CC)C(C)C)C(=O)N[C@@H](C)C(=O)N[C@@H](CCCCN)C(=O)N[C@@H](Cc1cnc[nH]1)C(=O)N[C@@H](CO)C(N)=O [FLSLIPHAINAVSAIAKHS]
MIC (Trypanosoma cruzi): 15.1 µM (≈ 30 µg/mL)
